We go through two compounds from article PMC10986598, “Investigating inhibitors of 1-deoxy-D-xylulose 5-phosphate synthase in a mouse model of UTI” (Microbiology Spectrum, 2024).

What is called Cmax is the peak of the concentration-time curve. The Tmax is the time from dosing to the highest level.

Where two headings read alike, the source gives them in different places.

The subject of one data set is UPEC strain CFT073. The experiment in a line: In vivo ascending UTI assay (prophylaxis). Further details: species or system Escherichia coli in C3H/HeN mice. The following applies: gentamicin 10 mg/kg IP 30 min prior to inoculation. As to the method: Female mice were injected subcutaneously in the flank with 2.5 mg of MPA (150 mg/mL, diluted in sterile saline) 7 days prior to inoculation ([60]). Mice were dosed vaginally with 30 µL of sterile saline lavage fluid immediately prior to inoculation. The fluid was collected, placed on a slide, heat fixed, Gram stained, and assessed to determine the estrous cycle stage of each mouse as previously described ([61]).
Six-week-old female C3H/HeN mice were inoculated with UPEC as previously described ([28]). Briefly, UPEC strain CFT073 (ATCC designation: BAA-2503) was streaked on LB agar from a frozen glycerol stock and grown overnight at 37°C. Following overnight incubation, three to five colonies were picked and subcultured into 10 mL of sterile LB, and the culture was incubated statically overnight at 37°C. The culture was diluted 1:1,000 (25 µL of culture into 25 mL of sterile LB) and incubated statically for 24 h at 37°C to promote the growth of bacteria with type-1 pili expression. The resulting 25 mL inoculum was centrifuged at 4,200 × g for 20 min at 4°C. The supernatant was removed, and the cell pellet was resuspended in 10 mL of sterile PBS. The OD600 was adjusted to 1.0 by the addition of PBS to give a cell density of approximately 4 × 10^7 to 1 × 10^8 CFUs per 50 µL, the volume of the inoculum. Cell counts were validated by plating a dilution of the inoculum solution and enumerating following overnight incubation.
Urinary catheters were assembled by threading 30G needles with 0.28 mm inner diameter polyethylene tubing to create a soft tip. Catheter tips were dipped in lubricant immediately before inoculation. During catheterization, urine was aspirated from the bladder prior to inoculation with 50 µL of UPEC inoculum, prepared as described above. Mice were housed with their drug-dosed cohort and dosed intraperitoneally according to each experiment’s dosing regimen as shown in the figures. Dosing regimen for BAP trial 1 (Fig. 7b)consisted of IP administration of BAP (300 mg/kg) 30 min before inoculation; dosing regimen for BAP trial 2 (Fig. 7c) consisted of IP administration of BAP (600 mg/kg) 30 min before inoculation followed with IP doses of BAP (300 mg/kg) at 1 and 3 hpi; dosing regimen for BAP trial 3 and the pro-hpAP trial (Fig. 7d) consisted of IP administration of BAP (600 mg/kg) or pro-hpAP (60 mg/kg) 30 min before inoculation followed with IP doses of BAP (300 mg/kg) or pro-hpAP (30 mg/kg) at 1, 3, and 24 hpi; dosing regimen 4 (Fig. S3) consisted of IP administration of BAP (600 mg/kg) 30 min before inoculation followed with IP doses of BAP (300 mg/kg) at 1, 3, 6, 10, 22, 26, and 30 hpi. Gentamicin diluted in sterile PBS was used as a positive control and was administered to mice at 10 mg/kg IP 30 min prior to inoculation in all experiments.
After 48 h, mice were anesthetized by isoflurane inhalation and sacrificed by cervical dislocation. Bladders were harvested, added to 1 mL sterile PBS, and homogenized with a hand-held homogenizer in a biosafety cabinet. Tissue homogenates were serially-diluted (five 10-fold dilutions), and 100 µL of each dilution was plated onto LB plates and enumerated after a 24 h incubation at 37°C, yielding an effective detection range of 1 × 10^2–150 × 10^8 CFU/mL. In a few cases, bacterial counts fell below the lower limit of detection or above the upper limit of detection and are reported as 0 CFU/mL or conservatively 200 × 10^8 CFU/mL, respectively.

The nature of data set [1]: In vivo PK studies in CD-1 mice. The settings on record: for AUC: pro-hpAP 30 mg/kg IP; for Cmax / AUC(0-t): ip, 30 mg/kg; for AUC(0-t): read-out: AUC0-t. As to the method:
For pharmacokinetic analysis, both male (n = 2) and female (n = 2) CD1 mice were dosed with either BAP or pro-hpAP by intraperitoneal (IP) route or administration (100 mg/kg) and (30 mg/kg), respectively. Blood and tissue samples were collected at predetermined time points (0–6 h post-dose). Plasma was generated from blood by low-speed centrifugation (3,000 × g), and all samples were stored at −80°C until bioanalysis.
Non-compartmental-analysis module in WinNonlin was used to assess blood pharmacokinetic parameters including max concentrations (Cmax), time to Cmax (Tmax), area under the curve (AUC), area extrapolated to infinity (AUC0–∞), and terminal half-life (t1/2). In addition, the tissue penetration index was measured as the ratio of AUCtissue to AUCplasma.
To quantify BAP and pro-hpAP, methanol containing 0.5 µM losartan as an internal standard was added 5 µL/µL plasma or 5 µL/mg tissue in microcentrifuge tubes. Tissue was further homogenized using a Spex Geno/Grinder with stainless steel beads for 3 min at 1,500 RPM. Homogenates from untreated animals were spiked with the analytes from 100 to 0.01 nmol/g tissue by serial dilution to generate a standard curve. Plasma and tissue homogenates were then vortexed and centrifuged (16,000 × g for 5 min at 4°C) to precipitate proteins. Supernatants were transferred to a 96 well plate and 2 µL was injected on a Accela 1250 LC coupled to a Vantage triple quadrupole mass spectrometer (Thermo Fisher Scientific Inc., Waltham MA). Samples were separated on an Agilent EclipsePlus C18 RRHD (1.8 µm) 2.1 × 100 mm column with mobile phases consisting of water +0.1% formic acid (A), and acetonitrile + 0.1% formic acid (B). […] Samples were introduced to the source through heated ion spray with the capillary temperature setting at 350°C, spray voltage of 4 kV and S-Lens RF of 51. Nitrogen was used as the sheath and auxiliary gas with the settings of 50 and 1 arbitrary units, respectively. For BAP, the instrument was operated in negative ion mode scanning for transitions of 179.1 > 63.1, 79.1 (BAP) and 420.9 > 179.1, 127.0 (losartan) which were acquired with collision energies setting of 17; 55 and 25; 41 CE, respectively. For pro-hpAP, the instrument was operated in positive ion mode scanning for transitions of 346.2 to 86.1 and 143.2 (pro-hpAP) and 422.9 to 207.1 and 180.1 (losartan) which were acquired with collision energies setting of 29; 17 and 37; 22 CE, respectively. Peaks were quantified with Xcalibur software.

The mark [2] stands for this setting: both sexes, CD1, mouse, in vivo, Bladder, single 30 mg/kg IP dose of pro-hpAP, analyte = labelled substance.
[3] abbreviates: both sexes, CD1, mouse, in vivo, Brain, single 30 mg/kg IP dose of pro-hpAP, analyte = labelled substance.
Where [4] appears, read: both sexes, CD1, mouse, in vivo, Kidney, single 30 mg/kg IP dose of pro-hpAP, analyte = labelled substance.

Regarding `CNC(C)C1CCC(N)C(OC2C(N)CC(N)C(OC3OCC(C)(O)C(NC)C3O)C2O)O1` (centres unmarked) [gentamicin, reference compound], in the data set with UPEC strain CFT073, the “mice with bacterial burden below the limit of detection (LOD)” value is 5 of 8.

For `C#CCCOP(=O)(O)C(C)=O` [hpAP, homopropargyl acetylphosphonate], the AUC worked out at 366 ± 31 nmol·h/g in data set [1] (bladder, analyte = labelled substance (pro-hpAP or released hpAP)); 38.8 ± 2.7 µM·h in data set [1] (both sexes, CD1, mouse, in vivo, plasma, analyte = labelled substance, read-out: AUC); 1.87 ± 0.21 nmol·h/g in data set [1] (brain, analyte = labelled substance); 16.3 ± 1.4 nmol·h/g in data set [1] (kidney, analyte = labelled substance). Further, the Cmax in data set [1] (setting [2]) was found to be 586 ± 78 µM; in data set [1] (setting [3]), 2.18 ± 0.16 µM; in data set [1] (setting [4]), 50.2 ± 7.7 µM; in data set [1] (both sexes, CD1, mouse, in vivo, Plasma, single 30 mg/kg IP dose of pro-hpAP, analyte = labelled substance (pro-hpAP or released hpAP)), 110 ± 11 µM. Also, the AUC(0-t) came out at 366 ± 31 µM·h in data set [1] (setting [2]); 1.87 ± 0.21 µM·h in data set [1] (setting [3]); 16.3 ± 1.4 µM·h in data set [1] (setting [4]); 38.8 ± 2.7 µM·h in data set [1] (both sexes, CD1, mouse, in vivo, Plasma, single 30 mg/kg IP dose of pro-hpAP, analyte = labelled substance). In data set [1] (both sexes, CD1, mouse, in vivo, Kidney, single 30 mg/kg IP dose of pro-hpAP, analyte = labelled substance, read-out: Tmax), the Tmax came out at 15 min.
